From PMC2768111 (British Journal of Cancer, 2009) come the findings set out here.

For one experiment, the target named is T1, TAO2 (Homo sapiens, UniProt Q9UL54).
T1 sequence (Q9UL54 1-1235): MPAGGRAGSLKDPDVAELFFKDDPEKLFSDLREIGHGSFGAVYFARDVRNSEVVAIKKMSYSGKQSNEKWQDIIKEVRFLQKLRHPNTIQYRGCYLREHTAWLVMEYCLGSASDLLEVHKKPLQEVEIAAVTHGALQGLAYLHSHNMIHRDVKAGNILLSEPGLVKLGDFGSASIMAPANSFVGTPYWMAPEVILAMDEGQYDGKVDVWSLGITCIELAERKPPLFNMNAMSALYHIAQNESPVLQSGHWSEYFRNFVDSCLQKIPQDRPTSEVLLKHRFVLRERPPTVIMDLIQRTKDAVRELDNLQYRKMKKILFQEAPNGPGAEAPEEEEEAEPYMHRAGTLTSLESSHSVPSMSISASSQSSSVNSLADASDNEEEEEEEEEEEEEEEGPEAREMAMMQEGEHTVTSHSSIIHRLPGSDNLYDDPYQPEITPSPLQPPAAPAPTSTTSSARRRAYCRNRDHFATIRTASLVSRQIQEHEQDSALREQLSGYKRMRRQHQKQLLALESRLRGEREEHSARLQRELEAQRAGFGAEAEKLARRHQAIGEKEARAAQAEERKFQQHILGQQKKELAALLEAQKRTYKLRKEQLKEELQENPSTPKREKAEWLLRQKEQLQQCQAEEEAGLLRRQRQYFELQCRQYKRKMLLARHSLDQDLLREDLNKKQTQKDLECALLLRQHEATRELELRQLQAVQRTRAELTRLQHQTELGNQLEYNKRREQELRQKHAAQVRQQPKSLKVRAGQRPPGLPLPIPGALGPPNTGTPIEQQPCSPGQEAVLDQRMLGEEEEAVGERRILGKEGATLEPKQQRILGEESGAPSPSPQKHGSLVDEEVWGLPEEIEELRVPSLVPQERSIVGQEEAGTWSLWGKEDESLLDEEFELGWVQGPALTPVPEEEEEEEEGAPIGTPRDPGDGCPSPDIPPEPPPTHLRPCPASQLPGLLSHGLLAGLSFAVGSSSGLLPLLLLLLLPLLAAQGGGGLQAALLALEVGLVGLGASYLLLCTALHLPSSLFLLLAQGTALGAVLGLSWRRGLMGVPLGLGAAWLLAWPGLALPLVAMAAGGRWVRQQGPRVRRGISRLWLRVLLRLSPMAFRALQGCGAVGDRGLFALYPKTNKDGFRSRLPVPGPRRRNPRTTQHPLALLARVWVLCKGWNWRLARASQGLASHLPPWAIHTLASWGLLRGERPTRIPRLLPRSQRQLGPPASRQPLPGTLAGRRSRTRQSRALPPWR
The experiment can be described thus: IC50 Profiler Express kinase assay. It is filed as biochemical.

Another experiment concerns the target PTK5 (Homo sapiens, UniProt P42685). Put plainly: IC50 Profiler Express kinase assay. Type of experiment: biochemical.
In experiment [1] the test system is human bone marrow progenitor cells. The experiment can be described thus: Bone marrow progenitor growth. The settings on record: CFU-GM, 240 h. It is filed as cell-based.

Like-named read-outs stand apart in the source and are kept apart here.

Sequence of PTK5 (P42685 whole entry): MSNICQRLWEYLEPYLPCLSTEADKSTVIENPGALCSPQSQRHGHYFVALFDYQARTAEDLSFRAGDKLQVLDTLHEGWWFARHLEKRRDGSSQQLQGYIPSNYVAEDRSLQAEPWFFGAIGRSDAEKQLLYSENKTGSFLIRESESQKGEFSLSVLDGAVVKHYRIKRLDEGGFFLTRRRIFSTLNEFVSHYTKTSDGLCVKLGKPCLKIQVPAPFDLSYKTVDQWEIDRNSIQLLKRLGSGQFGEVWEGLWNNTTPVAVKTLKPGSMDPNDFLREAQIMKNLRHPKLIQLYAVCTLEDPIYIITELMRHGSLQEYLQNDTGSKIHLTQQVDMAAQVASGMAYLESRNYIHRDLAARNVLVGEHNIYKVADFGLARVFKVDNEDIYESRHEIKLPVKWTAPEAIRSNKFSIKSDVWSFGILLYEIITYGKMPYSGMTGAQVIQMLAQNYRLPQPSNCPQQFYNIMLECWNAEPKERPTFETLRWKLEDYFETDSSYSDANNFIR

As for `Cc1ccc(Nc2nccc(N(C)c3ccc4c(C)n(C)nc4c3)n2)cc1S(N)(=O)=O` [Pazopanib], the IC50 is 382 nM against TAO2; 97 nM at PTK5; 1000 nM in experiment [1] (read-out: IC50, GM-CSF–driven CFU-GM formation).

Turning to `CCN(CC)CCNC(=O)c1c(C)[nH]c(/C=C2\C(=O)Nc3ccc(F)cc32)c1C` [Sunitinib], the IC50 in experiment [1] (read-out: IC50, CFU-GM formation induced by GM-CSF) is 32.7 nM.
